Experimental data as given in US20200237909A1, “METHODS OF TREATING OR PREVENTING BREAST CANCER METASTASES USING ANTIBODIES TO JAGGED1 AND CHEMOTHERAPEUTIC AGENTS” (The Trustees of Princeton University, priority 2017, published 2020).
Read-outs that look alike come from different tables or passages of the source.

Tests used:
[1] = system: MSCs; assay: Stress inducers/inhibitors: Jagged1 expression and ROS production in MSCs; type: cell-based, mouse
Description: Next, which signaling pathway is responsible for Jagged1 induction after chemotherapy in osteoblast lineage cells was investigated. Chemotherapy generates many stress responses in cells, including endoplasmic reticulum stress (ER stress), and oxidative stress. Some of the stress conditions have been associated with the regulation of Jagged1 expression (Paul et al., 2014). Several treatments were used to mimic or inhibit these stress responses and then Jagged1 mRNA and protein levels were analyzed within the cells.
293T, H29-Clone #7, MC3T3-E1 Clone #4(denoted as MC3T3 for abbreviation thereafter), MCF7TR, mouse mesenchymal stromal cell (MSC, isolated from BALB/c), 4T1.2, SCP28, SCP28-Vector and -Jagged1 cells, SCP28, RAW264.7, and SUM1315-M1B1 cells were cultured according to American Type Culture Collection instructions and the inventors' previous studies (Ell et al., 2013; Ren et al., 2008; Sethi et al., 2011; Zheng et al., 2014). MSC cells were derived previously and were cultured in DMEM supplemented with 10% FBS, 30 ng/ml bFGF, 100 U/ml penicillin, and 100 μg/ml streptomycin (Ren et al., 2008). All plasmids were transfected into different cell lines using Lipofectamine 2000 following the manufacturer's manual (Life Technologies, CA, USA). To generate stable cell lines, a pLEX-MCS based lentivirus vector or a pMSCV-hygro based retrovirus vector was used in our study. Lentiviruses were packaged in HEK293T cells while retroviruses were packaged by using H29 cell line. Conditional media from these packaging cells containing viruses were collected 2 days and 3 days after transfection. Recipient cell lines were exposed to conditional media containing viruses supplemented with 2 μg/mL Polybrene for 48 h. Infected cells were selected with puromycin or hygromycin to generate stable expressing cell lines. 293T and H29clone #7 are cell lines from female humans. All other cancer cell lines are breast cancer cell lines from either female human or mouse.

[2] = mouse, in vivo
Description: (§1) To analyze liver toxicity, the activity of alanine aminotransferase (ALT) and aspartate aminotransferase (AST) in the sera of these mice after the respective drug treatments was measured.
(§2) For IgG or 15D11 antibody treatment, mice were i.p. injected at the dosing of 10 mg/kg, twice a week.

[3] = In vivo toxicity of 15D11 (body weight, GI histology, ALT/AST, CBC, T cells)
Description: as §1, §2

[4] = system: Notch downstream genes (human HES2, HEY1, HEY2); assay: Notch downstream gene expression in tumor cells co-cultured with MSC after chemotherapy; type: cell-based; conditions: co-culture tumor cells after chemotherapy

Compound: C[C@H]1CCC/C=C/[C@@H]2C[C@H](O)C[C@H]2[C@H](O)/C=C/C(=O)O1 [Brefeldin A (BFA), Brefeldin A]
- Jagged1 expression in MSCs [1]: did not induce Jagged1 expression

Compound: ClC(Cl)(Cl)Cl [CCl4]
- liver toxicity: ALT and AST activity in sera [2]: dramatic increase

Compound: O=S1(=O)N[C@@]2(CN1CC(F)(F)F)[C@@H]1CC[C@H]2Cc2ccc(/C=C/CN3CCC(C(F)(F)F)CC3)cc2C1 [GSI]
- general toxicity based on body weight measurement ([3]; 15D11 10 mg/kg, twice a week): significant weight loss
- GI track toxicity (H&E and Alcian blue staining) ([3]; mouse, in vivo): significant goblet cell metaplasia
- liver toxicity: ALT and AST activity in sera ([3]; mouse, in vivo): no change

Compound: OO [H2O2]
- Jagged1 expression in MSCs [1]: induced a strong Jagged1 expression

Compound: CC(=O)N[C@@H](CS)C(=O)O [N-Acetyl Cysteine]
- block of cisplatin and docetaxel induced ROS production ([1]; MSCs): completely blocked
- block of cisplatin-induced Jagged1 expression ([1]; MSCs): completely blocked

Compound: CC(=O)O[C@@]12CO[C@@H]1C[C@H](O)[C@@]1(C)C(=O)[C@H](O)C3=C(C)[C@@H](OC(=O)[C@H](O)[C@@H](NC(=O)OC(C)(C)C)c4ccccc4)C[C@@](O)([C@@H](OC(=O)c4ccccc4)[C@H]21)C3(C)C [docetaxel]
- ROS production in MSCs [1]: induced ROS production
- Notch downstream genes HES2, HEY1, HEY2 [4]: significantly upregulated

Compound: Tunicamycin
- Jagged1 expression in MSCs [1]: did not induce Jagged1 expression
